Assays:
[1] = target: T1, Human immunodeficiency virus type 1 integrase (Human immunodeficiency virus 1, UniProt Q7ZJM1); assay: Inhibitory activity against HIV integrase in the 3' processing step
[2] = target: T1, Human immunodeficiency virus type 1 integrase; assay: Inhibitory activity against HIV integrase in the strand transfer step

T1 sequence (Q7ZJM1 whole entry): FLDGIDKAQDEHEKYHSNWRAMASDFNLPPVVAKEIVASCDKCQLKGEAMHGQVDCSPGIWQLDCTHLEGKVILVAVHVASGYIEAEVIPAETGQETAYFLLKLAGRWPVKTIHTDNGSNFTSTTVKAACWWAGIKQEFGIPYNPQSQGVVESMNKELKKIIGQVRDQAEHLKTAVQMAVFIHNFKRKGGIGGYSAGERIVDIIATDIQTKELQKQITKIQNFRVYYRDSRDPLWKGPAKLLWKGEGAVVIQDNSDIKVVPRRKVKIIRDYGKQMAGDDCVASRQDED

| IC50 [1] | IC50 [2] | Structure (SMILES) |
| --- | --- | --- |
| 750 µM | 550 µM | Nc1ncnc2cc3c(cc12)ncn3C1CCC(COP(=O)(O)O)O1 (stereo not given) |
|  | 68 µM | Nc1ncnc2cc3c(cc12)ncn3C1COC(COP(=O)(O)O)C1 (stereo not given) |
| 75 µM | 53 µM | Nc1ncnc2c1ccc1ncn(C3COC(COP(=O)(O)O)C3)c12 (stereo not given) |
